Here are results for 25 molecules from patent US20240425479A1, “HALO-SUBSTITUTED AMINO AZA-HETEROARYL COMPOUNDS AS INHIBITORS OF THE HAEMATOPOIETIC PROGENITOR KINASE 1 (HPK1)” (priority 2021, published 2024).

Lck (h), sequence (P06239 whole entry): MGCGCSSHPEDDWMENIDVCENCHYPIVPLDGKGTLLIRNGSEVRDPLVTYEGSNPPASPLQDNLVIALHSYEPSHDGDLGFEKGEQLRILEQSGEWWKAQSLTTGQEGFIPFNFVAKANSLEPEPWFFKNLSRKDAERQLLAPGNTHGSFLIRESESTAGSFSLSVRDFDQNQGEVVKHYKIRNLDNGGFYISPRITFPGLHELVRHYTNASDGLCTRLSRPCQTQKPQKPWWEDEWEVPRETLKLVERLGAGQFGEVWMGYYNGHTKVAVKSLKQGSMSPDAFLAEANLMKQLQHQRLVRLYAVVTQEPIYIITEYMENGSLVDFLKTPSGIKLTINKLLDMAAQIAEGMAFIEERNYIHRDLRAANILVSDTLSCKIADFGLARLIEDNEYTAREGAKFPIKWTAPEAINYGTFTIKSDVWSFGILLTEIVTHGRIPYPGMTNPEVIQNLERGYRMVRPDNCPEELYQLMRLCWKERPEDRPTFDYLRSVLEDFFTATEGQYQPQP

The first assay deals with T1, Recombinant (1-346) HPK1 (h) (Homo sapiens, UniProt Q92918).
T1 construct: Recombinant (1-346) HPK1 (h) is incubated with 8 mM MOPS pH 7.0
T1 sequence (Q92918 1-346): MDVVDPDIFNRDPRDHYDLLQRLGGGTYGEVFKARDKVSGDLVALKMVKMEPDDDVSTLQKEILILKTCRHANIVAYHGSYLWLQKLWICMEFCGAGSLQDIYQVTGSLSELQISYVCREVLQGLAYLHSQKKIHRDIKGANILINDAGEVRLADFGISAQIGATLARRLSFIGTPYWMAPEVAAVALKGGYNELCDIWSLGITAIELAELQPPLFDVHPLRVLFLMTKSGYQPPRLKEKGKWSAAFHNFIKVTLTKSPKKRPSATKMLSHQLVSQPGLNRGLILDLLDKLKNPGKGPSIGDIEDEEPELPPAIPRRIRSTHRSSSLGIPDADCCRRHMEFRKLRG
The experiment in a line: HPK1 human STE kinase enzymatic radiometric assay. Format: biochemical. The following applies: read-out: HPK1 IC50 nM Range. The method, boiled down: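 Recombinant HPK1 (1-346) incubated 40 min at RT with 0.33 mg/mL myelin basic protein and [gamma-33P]-ATP in 8 mM MOPS pH 7.0, 0.2 mM EDTA, 10 mM Mg acetate; reaction started with Mg/ATP. Stopped with 0.5% phosphoric acid, spotted on P30 filtermat, washed, scintillation counted. Compounds tested as 9-point 3-fold dilutions.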
Usually IC50 stands for the concentration needed to halve the response being measured. For `CC(C)N1CCN(c2ccc(-c3nc(-c4cc(F)c5c(=O)[nH]cc(F)c5c4)c(N)nc3F)cc2)CC1` [Example I-85, 6-(3-amino-5-fluoro-6-(4-(4-isopropylpiperazin-1-yl)phenyl)pyrazin-2-yl)-4,8-difluoroisoquinolin-1(2H)-one], the IC50 was in the range of 0.1 to 10 nM.

`Cc1nc2cc(-c3nc(-c4ccc(N5CCN(C(C)C)CC5)cc4)c(F)nc3N)ccc2c(=O)[nH]1` [Example I-39, 7-(3-amino-5-fluoro-6-(4-(4-isopropylpiperazin-1-yl)phenyl)pyrazin-2-yl)-2-methylquinazolin-4(3H)-one]: the 50% inhibitory concentration (IC50) lay in the range of 11 to 100 nM. Consider `Cc1cc2cc(-c3nc(-c4ccc(N5CCN(CCCC(F)F)CC5)cc4)c(F)nc3N)cc(F)c2c(=O)[nH]1` [Example I-159, 6-(3-amino-6-(4-(4-(4,4-difluorobutyl)piperazin-1-yl)phenyl)-5-fluoropyrazin-2-yl)-8-fluoro-3-methylisoquinolin-1(2H)-one], for which the IC50 was 0.1 to 10 nM. Turning to `CC1NC(=O)c2c(F)cc(-c3nc(-c4ccc([C@]56C[C@H]5CN(C)C6)cc4)c(F)nc3N)cc2C1(F)F` (stereo partly drawn) [Example I-135, 6-(3-amino-5-fluoro-6-(4-((1S,5R)-3-methyl-3-azabicyclo[3.1.0]hexan-1-yl)phenyl)pyrazin-2-yl)-4,4,8-trifluoro-3-methyl-3,4-dihydroisoquinolin-1(2H)-one], the IC50 fell in the range of 11 to 100 nM. On the same count and under the same terms, then `Nc1nc(F)c(-c2ccc(N3CCN(CCC(F)F)CC3)cc2)nc1-c1cc(F)c2c(c1)CCNC2=O` [Example I-82, 6-(3-amino-6-(4-(4-(3,3-difluoropropyl)piperazin-1-yl)phenyl)-5-fluoropyrazin-2-yl)-8-fluoro-3,4-dihydroisoquinolin-1(2H)-one], with 0.1 to 10 nM; and `CN(C)Cc1cc(-c2nc(-c3ccc4c(=O)[nH]cc(F)c4c3)c(N)nc2F)c(F)c(F)c1N1CCOCC1` [Example I-263, 6-(3-amino-6-(5-((dimethylamino)methyl)-2,3-difluoro-4-morpholinophenyl)-5-fluoropyrazin-2-yl)-4-fluoroisoquinolin-1(2H)-one], with 11 to 100 nM.

With `CN(C)Cc1cc(-c2nc(-c3ccc4c(=O)[nH]cc(F)c4c3)c(N)nc2F)ccc1F` [Example I-276, 6-(3-amino-6-(3-((dimethylamino)methyl)-4-fluorophenyl)-5-fluoropyrazin-2-yl)-4-fluoroisoquinolin-1(2H)-one], the IC50 fell in the range of 11 to 100 nM. `Cc1cc2cc(-c3nc(-c4ccc(N5CCN(C(C)C)CC5)cc4)c(F)nc3N)c(F)cc2c(=O)[nH]1` [Example I-182, 6-(3-amino-5-fluoro-6-(4-(4-isopropylpiperazin-1-yl)phenyl)pyrazin-2-yl)-7-fluoro-3-methylisoquinolin-1(2H)-one]: the IC50 was 0.1 to 10 nM. On to `Cc1c[nH]c(=O)c2ccc(-c3nc(-c4cc(F)c(N5CCOCC5)c(CN(C)C)c4)c(F)nc3N)cc12` [Example I-266, 6-(3-amino-6-(3-((dimethylamino)methyl)-5-fluoro-4-morpholinophenyl)-5-fluoropyrazin-2-yl)-4-methylisoquinolin-1(2H)-one], for which the concentration for half-maximal inhibition (IC50) lay in the range of 0.1 to 10 nM. As for `C[C@H]1CN(c2ccc(-c3nc(-c4cc(F)c5c(c4)CCNC5=O)c(N)nc3F)cc2CN2CCC2)CCO1` [Example I-216, (S)-6-(3-amino-6-(3-(azetidin-1-ylmethyl)-4-(2-methylmorpholino)phenyl)-5-fluoropyrazin-2-yl)-8-fluoro-3,4-dihydroisoquinolin-1(2H)-one], the IC50 was in the range of 11 to 100 nM.

With `CCN(C)Cc1cc(-c2nc(-c3ccc4c(=O)[nH]cc(F)c4c3)c(N)nc2F)ccc1OC` [Example I-300, 6-(3-amino-6-(3-((ethyl(methyl)amino)methyl)-4-methoxyphenyl)-5-fluoropyrazin-2-yl)-4-fluoroisoquinolin-1(2H)-one], the IC50 fell in the range of 11 to 100 nM. Turning to `Cc1c[nH]c(=O)c2cc(F)c(-c3nc(-c4ccc(N5CCN(C(C)C)CC5)cc4)c(F)nc3N)cc12` [Example I-234, 6-(3-amino-5-fluoro-6-(4-(4-isopropylpiperazin-1-yl)phenyl)pyrazin-2-yl)-7-fluoro-4-methylisoquinolin-1(2H)-one], the IC50 fell in the range of 0.1 to 10 nM. Still for that read-out and setting: to `CC1NC(=O)c2c(F)cc(-c3nc(-c4ccc(N5CCN(C6CCC6)CC5)cc4)c(F)nc3N)cc2C1(F)F` (stereo not drawn) [Example I-150, 6-(3-amino-6-(4-(4-cyclobutylpiperazin-1-yl)phenyl)-5-fluoropyrazin-2-yl)-4,4,8-trifluoro-3-methyl-3,4-dihydroisoquinolin-1(2H)-one] belongs 11 to 100 nM; to `C[C@H]1CN(c2ccc(-c3nc(-c4cc5c(cc4F)C(=O)NCC5)c(N)nc3F)cc2CN(C)C)CCO1` [Example I-212, (S)-6-(3-amino-6-(3-((dimethylamino)methyl)-4-(2-methylmorpholino)phenyl)-5-fluoropyrazin-2-yl)-7-fluoro-3,4-dihydroisoquinolin-1(2H)-one], 0.1 to 10 nM; to `CCN(C)Cc1c(N2CCOCC2)ccc(-c2nc(-c3ccc4c(c3)CCNC4=O)c(N)nc2F)c1F` [Example I-248, 6-(3-amino-6-(3-((ethyl(methyl)amino)methyl)-2-fluoro-4-morpholinophenyl)-5-fluoropyrazin-2-yl)-3,4-dihydroisoquinolin-1(2H)-one], 11 to 100 nM. Same read-out and setting: then `Cc1cc2cc(-c3nc(-c4ccc(N5CCOCC5)c(CN(C)C)c4)c(F)nc3N)c(F)cc2c(=O)[nH]1` [Example I-183, 6-(3-amino-6-(3-((dimethylamino)methyl)-4-morpholinophenyl)-5-fluoropyrazin-2-yl)-7-fluoro-3-methylisoquinolin-1(2H)-one], with 0.1 to 10 nM. Consider `Cc1c[nH]c(=O)c2ccc(-c3nc(-c4ccc(C5CCOCC5)cc4)c(F)nc3N)cc12` [Example I-181, 6-(3-amino-5-fluoro-6-(4-(tetrahydro-2H-pyran-4-yl)phenyl)pyrazin-2-yl)-4-methylisoquinolin-1(2H)-one], for which the half-maximal inhibitory concentration (IC50) lay in the range of 0.1 to 10 nM. On the same count and under the same terms, then `Nc1nc(F)c(-c2ccc(C3CCOCC3)c(CN3CCC3)c2)nc1-c1ccc2c(=O)[nH]cc(F)c2c1` [Example I-204, 6-(3-amino-6-(3-(azetidin-1-ylmethyl)-4-(tetrahydro-2H-pyran-4-yl)phenyl)-5-fluoropyrazin-2-yl)-4-fluoroisoquinolin-1(2H)-one], with 0.1 to 10 nM; and `Cc1[nH]c(=O)c2c(F)cc(-c3nc(-c4ccc(N5CCN(CC6CC6)CC5)cc4)c(F)nc3N)cc2c1F` [Example I-115, 6-(3-amino-6-(4-(4-(cyclopropylmethyl)piperazin-1-yl)phenyl)-5-fluoropyrazin-2-yl)-4,8-difluoro-3-methylisoquinolin-1(2H)-one], with 0.1 to 10 nM; and `CCN(C)Cc1cc(-c2nc(-c3cc4c(cc3F)C(=O)NCC4)c(N)nc2F)cc(C)c1OC` [Example I-303, 6-(3-amino-6-(3-((ethyl(methyl)amino)methyl)-4-methoxy-5-methylphenyl)-5-fluoropyrazin-2-yl)-7-fluoro-3,4-dihydroisoquinolin-1(2H)-one], with 0.1 to 10 nM.

Take `Cc1c[nH]c(=O)c2cc(F)c(-c3nc(-c4ccc(C5CCOCC5)c(CN(C)C)c4)c(F)nc3N)cc12` [Example I-235, 6-(3-amino-6-(3-((dimethylamino)methyl)-4-(tetrahydro-2H-pyran-4-yl)phenyl)-5-fluoropyrazin-2-yl)-7-fluoro-4-methylisoquinolin-1(2H)-one]: the IC50 is 0.1 to 10 nM. On to `Cc1[nH]c(=O)c2ccc(-c3nc(-c4ccc(N5CCOCC5)c(CN(C)C)c4)c(F)nc3N)cc2c1Cl` [Example I-124, 6-(3-amino-6-(3-((dimethylamino)methyl)-4-morpholinophenyl)-5-fluoropyrazin-2-yl)-4-chloro-3-methylisoquinolin-1(2H)-one], for which the IC50 was in the range of 0.1 to 10 nM.

As for `Cc1nc2cc(-c3nc(-c4ccc(N5C[C@@H](C)N(C)[C@@H](C)C5)cc4)c(F)nc3N)ccc2c(=O)[nH]1` [Example I-95, 7-(3-amino-5-fluoro-6-(4-((3R,5S)-3,4,5-trimethylpiperazin-1-yl)phenyl)pyrazin-2-yl)-2-methylquinazolin-4(3H)-one], the IC50 was 11 to 100 nM. On to `Cc1c[nH]c(=O)c2ccc(-c3nc(-c4ccc(F)c(CN(C)C)c4)c(F)nc3N)cc12` [Example I-275, 6-(3-amino-6-(3-((dimethylamino)methyl)-4-fluorophenyl)-5-fluoropyrazin-2-yl)-4-methylisoquinolin-1(2H)-one], for which the IC50 lay in the range of 11 to 100 nM.

In a further assay the target is Lck (h) (Homo sapiens, UniProt P06239). Put plainly: Lck human STE kinase enzymatic radiometric assay. It counts as biochemical. To be noted: ratio Lck IC50 / HPK1 IC50. On the procedure:
(b) Lck Human STE Kinase Enzymatic Radiometric Assay
Lck (h) is incubated with 50 mM Tris pH 7.5, 0.1 mM EGTA, 0.1 mM Na3VO4, 250 uM KVEKIGEGTYGVVYK (Cdc2 peptide), 10 mM MgAcetate and [gamma-33P]-ATP (specific activity and concentration as required). The reaction is initiated by the addition of the Mg/ATP mix. After incubation for 40 minutes at room temperature, the reaction is stopped by the addition of phosphoric acid to a concentration of 0.5%, 10 μL of the reaction is then spotted onto a P30 filtermat and washed four times for 4 minutes in 0.425% phosphoric acid and once in methanol prior to drying and scintillation counting. For more details on the kinase assay procedures see: Gao, Y. et. al.; Biochem J., 451 (2): 313-328, 2013.
Take `Nc1nc(F)c(-c2ccc(N3CCOCC3)cc2)nc1-c1ccc2c(c1)CCNC2=O` [drawing 1319]: the “LcK IC50/HPK IC50 selectivity” value is given as above 1666.

Staying with this assay, now noted: read-out: Lck IC50 nM Range.
As to `CC(C)N1CCN(c2ccc(-c3nc(-c4cc(F)c5c(=O)[nH]cc(F)c5c4)c(N)nc3F)cc2)CC1` [Example I-85, 6-(3-amino-5-fluoro-6-(4-(4-isopropylpiperazin-1-yl)phenyl)pyrazin-2-yl)-4,8-difluoroisoquinolin-1(2H)-one], the IC50 is above 1000 nM. `Cc1nc2cc(-c3nc(-c4ccc(N5CCN(C(C)C)CC5)cc4)c(F)nc3N)ccc2c(=O)[nH]1` [Example I-39, 7-(3-amino-5-fluoro-6-(4-(4-isopropylpiperazin-1-yl)phenyl)pyrazin-2-yl)-2-methylquinazolin-4(3H)-one]: the half-maximal inhibitory concentration (IC50) is above 1000 nM.
